From patent US8476064B2, “Inhibition assay method and device for detection of antibiotics” (Charm Sciences, Inc., priority 2006, dated 2013)

Legend:
B.st. spores [1] = test: Single service kidney swab microbial growth inhibition test, culture of Example 1, with or without beta-lactam receptor; assay type: cell-based, Bacillus (Geobacillus) Stearothermophilus; details: for test result With receptor: with 1 U receptor
Experimental: A Bromocresol purple (BCP)/Tris Solution was prepared by combining 25 mL of a Trizma Base solution (TBS), the solution including 2.5 grams Trizma Base in 100 mL of reverse osmosis/deionized water (RO/DI Water), with 100 milligrams of BCP and mixing well. The media was prepared by dissolving 5 grams glucose and 1 gram Mueller Hinton Broth (Mueller Hinton broth includes, in purified filtered water, 2 grams per liter (g/L) beef extract, 17.5 g/L casein hydrolysate acid and 1.5 g/L starch, pH 7.3 at 25 degrees C) into 100 mL RO/DI Water. Then a 0.01 mg/mL solution of trimethoprim in RO/DI Water was prepared and 1.2 mL was added to the media. Next 20 mL of BCP/Tris (sterile filtered through 0.45 micron filter) was added to the media.
Agar was prepared by combining 0.3 grams Difco Bacto-Agar (Item #0140-01), 0.225 NaCl and 17.485 RO/DI Water. The mixture was heated to 95° C. and then removed from the heat and allowed to cool to 75° C. Next 6 mL of media (prepared as described above with BCP/Tris) was added to the agar and mixed for 5 minutes. The mixture was cooled to 57° C. and 1 mL spore solution (concentration of 1 billion cfu/mL) was added and mixed together for 5 minutes. 0.200 mL was dispensed into the bottom of a vial 4.
The dispensed vial 4 was prepared as described in example 1. An extractant was prepared by adding 4.8 grams of 47.2% Trizma Base and 52.5% Potassium Phosphate Monobasic to 1000 mL RO/DI Water (pH should be 7.5+/−0.10). The extractant was sealed within the niblet 5 and the niblet was added to the vial 4. The vial 4 was heat sealed with foil.
The single service kidney swab procedure was run by first making a 3 inch incision into kidney. The swab 1 was then withdrawn from the test unit, the test unit in the form of a POCKETSWAB, by gently pulling and twisting the handle 2 out of the test unit body 7. The swab 1 was then inserted into the incision of the kidney and allowed to sit for 15 minutes to allow full absorption of liquid into the swab 1. The swab 1 was reinserted by gently pushing down and twisting to engage the threads 6 and screwing the handle down slowly about halfway. The swab tip 3 punctured the seals 12, 13 & 14 immersing the swab tip 3 into the extractant within the niblet 5 where it sat for 2 minutes. The swab 1 was then screwed down all the way. After shaking and tapping the vial 4 to get residual liquid into the bottom of the vial 4 and in contact with the culture 15, we placed the vial 4 into a heat block set at 67° C. and incubated for 2.5 hours (if urine is tested instead of kidney, incubate for 4 hours).
Culture is prepared as in Example 1. Prior to dispensing 200 microliters into the vial 4, antibiotic binder is prepared, in this example an antibiotic binder from the cell wall of B.st., also known as receptor. Varying amounts of inhibitory receptor units are mixed into the culture. Receptor is defined as protein removed from cellular membrane of B.st. A receptor unit (1 U) is the amount of receptor that will, in the test, reverse the culture growth inhibition of 12.5 ppb of penicillin G.
Results in Table 1 are from tests using the culture described in Example 1 and with the addition of receptor added into rinse buffer (rinse buffer composition is 4.8 grams of 47.2% Trizma Base and 52.5% Potassium Phosphate Monobasic to 1000 mL RO/DI Water) at 0, 0.3 units (U), 1.0 U, 2.0 U, 5.0 Upper test. Sample contained the following amounts of penicillin G: 0, 5 parts per billion (ppb), 10 ppb, 12.5 ppb, 25 ppb and 50 ppb. As shown, 1.0 U was able to reverse the result of a 12.5 ppb penicillin G sample. Results are either positive (+) or negative (−).
Results are either positive (+), negative (−) or borderline between positive and negative (+/−). Abbreviations are penicillin G (PenG); sulfamethazine (SMZ); sulfadimethoxine (SDM); tylosin (TY); gentamicin (G); oxytetracycline (OT). […]

B.st. spores [2] = test: as above; assay type: cell-based, Bacillus (Geobacillus) Stearothermophilus; details: 12.5 ppb penicillin G; Receptor added dried on swab
[3] = drug concentration 300 (unit not given)
[4] = drug concentration 500 (unit not given)
[5] = drug concentration 800 (unit not given)
[6] = drug concentration 400 (unit not given)
[7] = drug concentration 600 (unit not given)
[8] = drug concentration 250 (unit not given)
[9] = drug concentration 750 (unit not given)

**Q.** What does the source list for `Cc1cc(C)nc(NS(=O)(=O)c2ccc(N)cc2)n1` [SMZ, sulfamethazine]?
**A.** test result w/out receptor (B.st. spores [1]; drug 50 ppb): −; test result With receptor (B.st. spores [1]; drug 50 ppb): −; test result w/out receptor (B.st. spores [1]; drug 100 ppb): +/−; test result With receptor (B.st. spores [1]; drug 100 ppb): +/−; test result w/out receptor (B.st. spores [1]; drug 200 ppb): +/−; test result With receptor (B.st. spores [1]; drug 200 ppb): +/−

**Q.** With `COc1cc(NS(=O)(=O)c2ccc(N)cc2)nc(OC)n1` [SDM, sulfadimethoxine] as the molecule, how does the “test result w/out receptor” value (B.st. spores [1]; drug 50 ppb) read?
**A.** +/−

**Q.** What about the “test result With receptor” value (B.st. spores [1]; drug 50 ppb) of the same molecule?
**A.** +/−

**Q.** And the “test result w/out receptor” value (B.st. spores [1]; drug 100 ppb)?
**A.** +/−

**Q.** What about the “test result With receptor” value (B.st. spores [1]; drug 100 ppb) of the same molecule?
**A.** +/−

**Q.** And the “test result w/out receptor” value (B.st. spores [1]; drug 200 ppb)?
**A.** +

**Q.** And the “test result With receptor” value (B.st. spores [1]; drug 200 ppb)?
**A.** +

**Q.** How did the test result (B.st. spores [1]; 12.5 ppb penicillin G, Control - no receptor) turn out when `CC1(C)S[C@@H]2[C@H](NC(=O)Cc3ccccc3)C(=O)N2[C@H]1C(=O)O` [PenG, penicillin G] was run?
**A.** +

**Q.** What about the test result (B.st. spores [1]; 12.5 ppb penicillin G, Receptor added to buffer) of the same molecule?
**A.** −

**Q.** And the test result (B.st. spores [1]; 12.5 ppb penicillin G, Receptor added to culture surface)?
**A.** −

**Q.** What about the test result (B.st. spores [1]; 12.5 ppb penicillin G, Receptor mixed in culture) of the same molecule?
**A.** −

**Q.** What about the test result (B.st. spores [1]; 50 ppb penicillin G, Control - no receptor) of the same molecule?
**A.** +

**Q.** And the test result (B.st. spores [1]; 50 ppb penicillin G, Receptor added dried on swab)?
**A.** +

**Q.** And the test result (B.st. spores [1]; 50 ppb penicillin G, Receptor added to buffer)?
**A.** +

**Q.** And the test result (B.st. spores [1]; 50 ppb penicillin G, Receptor added to culture surface)?
**A.** +

**Q.** And the “test sensitivity to penicillin G” value (B.st. spores [1]; beta-lactam receptor 0.3 units to 5.0 units added to the top of the culture)?
**A.** reduced by varying amounts

**Q.** What about the “test result w/out receptor” value (B.st. spores [1]; drug 12.5 ppb) of the same molecule?
**A.** +

**Q.** What about the “test result With receptor” value (B.st. spores [1]; drug 12.5 ppb) of the same molecule?
**A.** −

**Q.** And the “test result w/out receptor” value (B.st. spores [1]; drug 25 ppb)?
**A.** +

**Q.** And the “test result With receptor” value (B.st. spores [1]; drug 25 ppb)?
**A.** +

**Q.** And the test result (B.st. spores [1]; penicillin G 5 ppb in sample, receptor 0 U per test in rinse buffer)?
**A.** +

**Q.** And the test result (B.st. spores [1]; penicillin G 5 ppb in sample, receptor 0.3 U per test in rinse buffer)?
**A.** −

**Q.** And the test result (B.st. spores [1]; penicillin G 5 ppb in sample, receptor 1.0 U per test in rinse buffer)?
**A.** −

**Q.** What about the test result (B.st. spores [1]; penicillin G 5 ppb in sample, receptor 2.0 U per test in rinse buffer) of the same molecule?
**A.** −

**Q.** What about the test result (B.st. spores [1]; penicillin G 5 ppb in sample, receptor 5.0 U per test in rinse buffer) of the same molecule?
**A.** −

**Q.** And the test result (B.st. spores [1]; penicillin G 10 ppb in sample, receptor 0 U per test in rinse buffer)?
**A.** +

**Q.** And the test result (B.st. spores [1]; penicillin G 10 ppb in sample, receptor 0.3 U per test in rinse buffer)?
**A.** −

**Q.** What about the test result (B.st. spores [1]; penicillin G 10 ppb in sample, receptor 1.0 U per test in rinse buffer) of the same molecule?
**A.** −

**Q.** And the test result (B.st. spores [1]; penicillin G 10 ppb in sample, receptor 2.0 U per test in rinse buffer)?
**A.** −

**Q.** And the test result (B.st. spores [1]; penicillin G 10 ppb in sample, receptor 5.0 U per test in rinse buffer)?
**A.** −

**Q.** What about the test result (B.st. spores [1]; penicillin G 12.5 ppb in sample, receptor 0 U per test in rinse buffer) of the same molecule?
**A.** +

**Q.** What about the test result (B.st. spores [1]; penicillin G 12.5 ppb in sample, receptor 0.3 U per test in rinse buffer) of the same molecule?
**A.** +

**Q.** And the test result (B.st. spores [1]; penicillin G 12.5 ppb in sample, receptor 1.0 U per test in rinse buffer)?
**A.** −

**Q.** And the test result (B.st. spores [1]; penicillin G 12.5 ppb in sample, receptor 2.0 U per test in rinse buffer)?
**A.** −

**Q.** And the test result (B.st. spores [1]; penicillin G 12.5 ppb in sample, receptor 5.0 U per test in rinse buffer)?
**A.** −

**Q.** What about the test result (B.st. spores [1]; penicillin G 25 ppb in sample, receptor 0 U per test in rinse buffer) of the same molecule?
**A.** +

**Q.** What about the test result (B.st. spores [1]; penicillin G 25 ppb in sample, receptor 0.3 U per test in rinse buffer) of the same molecule?
**A.** +

**Q.** And the test result (B.st. spores [1]; penicillin G 25 ppb in sample, receptor 1.0 U per test in rinse buffer)?
**A.** +

**Q.** And the test result (B.st. spores [1]; penicillin G 25 ppb in sample, receptor 2.0 U per test in rinse buffer)?
**A.** +

**Q.** What about the test result (B.st. spores [1]; penicillin G 25 ppb in sample, receptor 5.0 U per test in rinse buffer) of the same molecule?
**A.** +

**Q.** What about the test result (B.st. spores [1]; penicillin G 50 ppb in sample, receptor 0 U per test in rinse buffer) of the same molecule?
**A.** +

**Q.** And the test result (B.st. spores [1]; penicillin G 50 ppb in sample, receptor 0.3 U per test in rinse buffer)?
**A.** +

**Q.** And the test result (B.st. spores [1]; penicillin G 50 ppb in sample, receptor 1.0 U per test in rinse buffer)?
**A.** +

**Q.** What about the test result (B.st. spores [1]; penicillin G 50 ppb in sample, receptor 2.0 U per test in rinse buffer) of the same molecule?
**A.** +

**Q.** And the test result (B.st. spores [1]; penicillin G 50 ppb in sample, receptor 5.0 U per test in rinse buffer)?
**A.** +

**Q.** What about the test result (B.st. spores [2]) of the same molecule?
**A.** −

**Q.** `CC[C@H]1OC(=O)C[C@@H](O)[C@H](C)[C@@H](O[C@@H]2O[C@H](C)[C@@H](O[C@H]3C[C@@](C)(O)[C@@H](O)[C@H](C)O3)[C@H](N(C)C)[C@H]2O)[C@@H](CC=O)C[C@@H](C)C(=O)/C=C/C(C)=C/[C@@H]1CO[C@@H]1O[C@H](C)[C@@H](O)[C@@H](OC)[C@H]1OC` [TY, tylosin] was tested. Which “test result w/out receptor” value (B.st. spores [1]; [3]) did it give?
**A.** +/−

**Q.** What about the “test result With receptor” value (B.st. spores [1]; [3]) of the same molecule?
**A.** +/−

**Q.** And the “test result w/out receptor” value (B.st. spores [1]; [4])?
**A.** +

**Q.** What about the “test result With receptor” value (B.st. spores [1]; [4]) of the same molecule?
**A.** +

**Q.** And the “test result w/out receptor” value (B.st. spores [1]; [5])?
**A.** +

**Q.** And the “test result With receptor” value (B.st. spores [1]; [5])?
**A.** +

**Q.** gentamicin was tested. Which “test result w/out receptor” value (B.st. spores [1]; [6]) did it give?
**A.** +/−

**Q.** What about the “test result With receptor” value (B.st. spores [1]; [6]) of the same molecule?
**A.** +/−

**Q.** And the “test result w/out receptor” value (B.st. spores [1]; [7])?
**A.** +/−

**Q.** And the “test result With receptor” value (B.st. spores [1]; [7])?
**A.** +/−

**Q.** What about the “test result w/out receptor” value (B.st. spores [1]; [5]) of the same molecule?
**A.** +/−

**Q.** And the “test result With receptor” value (B.st. spores [1]; [5])?
**A.** +/−

**Q.** Which results are given for `CN(C)[C@@H]1C(O)=C(C(N)=O)C(=O)[C@@]2(O)C(O)=C3C(=O)c4c(O)cccc4[C@@](C)(O)[C@H]3[C@H](O)[C@@H]12` [OT, oxytetracycline]?
**A.** test result w/out receptor (B.st. spores [1]; [8]): +; test result With receptor (B.st. spores [1]; [8]): +; test result w/out receptor (B.st. spores [1]; [4]): +; test result With receptor (B.st. spores [1]; [4]): +; test result w/out receptor (B.st. spores [1]; [9]): +; test result With receptor (B.st. spores [1]; [9]): +
